This note sets out measurements from patent US20070032418A1, “Small-molecule inhibitors of angiogenin and rnases and in vivo and in vitro methods of using same” (Ambion, Inc, priority 2003, published 2007).

pIC50, pKi: −log10 of the molar value. Like-named read-outs stand apart in the source and are kept apart here.

One experiment concerns the target angiogenin (ANG) (Homo sapiens, UniProt P03950). As to the kind of experiment: Inhibition of ANG ribonucleolytic activity, HPLC assay of oligonucleotide cleavage. The experiment is classed as biochemical. How it is done: Reaction mixtures with and without test compounds were chromatographed on a Mono Q anion-exchange column with an NaCl gradient in 10 mM Tris, pH 8. […] This information was used to calculate kcat/Km values, which were then fitted to the equation (kcat/Km)i=(kcat/Km)0/[…], where (kcat/Km)i and (kcat/Km)0 are defined as the values in the presence and absence of inhibitor, respectively, and [I] is defined as the inhibitor concentration. At least four concentrations (in a range of about 10 μM-above 100 μM) were used in the final hit confirmation in order to distinguish all true hits.
Chemical structures of selected compounds are shown in these Tables and in FIGS. 4 and 5.

A further experiment deals with MMLV RT RNase H (Moloney murine leukemia virus, UniProt P03355). Description: Inhibition of RT-based RNase H cleavage of RNA:DNA hybrid. The conditions noted are these: for % Cleavage: no inhibitor: 36%, 5 min at 37 C. The class given is biochemical. As to the method: As described above, Chembridge compound #467929 offered protection from several RNA-specific endonucleolytic activities. […] A 20-mer DNA oligonucleotide was asymmetrically annealed to a 1500 base synthetic RNA to create an RNA:DNA duplex substrate for RNase H. Reactions were initiated with 10 U of MMLV RT in 1×RT buffer (50 mM TrisCl pH 8.3, 75 mM KCl, 3 mM MgCl2, 5 mM DTT) containing 500 ng/ul RNA:DNA hybrid. All reactions contained 5% DMSO either with or without the small molecule RNase inhibitor. Samples were incubated for 5 min at 37 C, and quenched with EDTA. Products were resolved on an RNA LabChip. Cleavage products were observed as two equally represented RNA species of 1000 and 500 bases. Product length and yield were determined using the 2100 BioAnalyzer software (Agilent). Table 4 details the level of inhibition of MMLV RT RNase H that is observed as a function of the concentration of compounds 467929 and 227726.

The target of experiment [1] is T1, bovine pancreatic RNase A (Bos taurus, UniProt P61823).
T1 sequence (P61823 27-150): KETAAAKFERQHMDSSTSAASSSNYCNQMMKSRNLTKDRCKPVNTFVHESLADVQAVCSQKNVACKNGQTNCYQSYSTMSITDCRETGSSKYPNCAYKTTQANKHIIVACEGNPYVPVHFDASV
Description: Inhibition of bovine pancreatic RNase A (specificity versus ANG). The class given is biochemical.

Experiment [2] relates to PC-3 human prostate tumor cells. As to the kind of experiment: PC-3 tumor formation in athymic mice. The class given is in vivo. As to conditions: PC-3 s.c. As to the method: Compound NCI-65828 was identified by HTS as an ANG inhibitor. […] Each compound was administered 6 times per week, in doses of 40 μg, 8 μg, and 1.6 μg (about 2, 0.4 and 0.08 mg/kg/day). The compound was dissolved in DMSO, and control mice received a corresponding volume of DMSO (4%, 0.8% and 0%). Another control group received saline.
Another in vivo mouse experiment was performed using 8 or 12 mice per group. The experimental group was administered PC-3 cells and NCI-65828, as intraperitoneal injections (40 μg and 8 μg). A control group of mice was administered PC-3 cells and a related compound that was known to be ineffective at inhibiting ANG enzymatic activity. Mice were evaluated for number of animals that remained tumor free as a function of time, at intervals of 3 days from days 14-42 following the initial injection.
Concentrated stocks of inhibitors were prepared in dimethylsulfoxide (DMSO), and the inhibitors were diluted into phosphate-buffered saline (PBS); the final DMSO concentration for the 40 μg and 20 μg doses was 4% in PBS, and that for the 8 μg and 4 μg doses was 0.8% in PBS. Statistical significance (P values) was determined from Mantel-Cox tests performed on Kaplan-Meier survivor functions. Results for inhibitor-treated groups were compared to results obtained with the appropriate DMSO control groups. A positive control group of mice, administered antisense DNA specific for the ANG gene in PBS (no DMSO), was also included. ANG antisense DNA was shown previously to be extremely effective in this tumor model.
Tumor cells from a human prostate cancer (PC-3) were injected subcutaneously (s.c.) in the shoulder of 6-7 week old athymic (nude) mice on day 0. Treatment with the indicated amount of inhibitor (in 100 μL) was given subcutaneously in the same area as the cells, 6 times per week, with the first injection 5-10 minutes prior to injection of the cells. The total dosage was 0.4 mg to 2 mg per kg per day.

Where [3] appears, read: 20 mM Hepes, 100 mM NaCl, pH 7.0, 37° C., read-out: Ki for inhibition of the ribonucleolytic activity of angiogenin.
[4] abbreviates: inhibition of ANG-catalyzed cleavage of an RNA oligonucleotide, 20 mM Hepes, 100 mM NaCl, 37° C., read-out: KI.

Sequence of angiogenin (ANG) (P03950 25-147): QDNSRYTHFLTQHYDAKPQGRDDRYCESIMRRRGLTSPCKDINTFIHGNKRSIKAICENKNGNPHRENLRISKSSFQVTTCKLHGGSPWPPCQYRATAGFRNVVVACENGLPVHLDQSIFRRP

For `O=C(Nc1ccc(Cc2ccc(NC(=O)c3cccc([N+](=O)[O-])c3)c(C(=O)O)c2)cc1C(=O)O)c1cccc([N+](=O)[O-])c1` [CB-467929], the pKi on angiogenin (ANG) (setting [3]) was 4.62. Further, the negative-log IC50 (pIC50) on MMLV RT RNase H is about 4.70. The “% Cleavage” value at MMLV RT RNase H (inhibitor 8 μM) amounted to 42%; on MMLV RT RNase H (inhibitor 40 μM), 8%.

As for `O=C(Nc1ccc(Cc2ccc(NC(=O)c3ccc(-c4ccccc4)cc3)c(C(=O)O)c2)cc1C(=O)O)c1ccc(-c2ccccc2)cc1` [CB-473872], at angiogenin (ANG) (setting [3]), the pKi is 4.70. Also, the “Tighter binding to ANG than to RNase A” value in experiment [1] was 2.3 fold.

As to `O=[N+]([O-])c1cc(/N=N/c2c(O)ccc3cc(S(=O)(=O)O)ccc23)c(O)c([N+](=O)[O-])c1` [NCI-65820], at angiogenin (ANG) (read-out: KI), the negative logarithm of the Ki (pKi) was 4.60. Also, in experiment [1], the “Tighter binding to ANG than to RNase A” value stood at 1.5 fold.

For `O=S(=O)(O)c1ccccc1/N=N/c1c(S(=O)(=O)O)cc2cc(S(=O)(=O)O)c(/N=N/c3ccccc3S(=O)(=O)O)c(O)c2c1O` [NCI-174066], on angiogenin (ANG) (read-out: KI), the negative logarithm of the Ki (pKi) was 3.63.

At angiogenin (ANG), `O=C(O)CC(NC(=O)CP(=O)(O)O)C(=O)O` (stereo not shown) [NCI-224131] showed a negative-log Ki (pKi) of under 3.30.

Regarding `O=C(N/N=C(\c1ccccc1)c1ccncc1)c1ccccc1` [NCI-227726, N′-[phenyl(4-pyridinyl)methylene] benzohydrazide, reference compound], the “% Cleavage” value was 45% on MMLV RT RNase H (inhibitor 100 μM), 43% on MMLV RT RNase H (inhibitor 524 μM) and 47% on MMLV RT RNase H (inhibitor 1000 μM).

`O=C(Nc1ccc(/C=C/c2ccc(NC(=O)c3cc(S(=O)(=O)O)c4ccncc4c3O)cc2S(=O)(=O)O)c(S(=O)(=O)O)c1)c1cc(S(=O)(=O)O)c2ccncc2c1O` [NCI-665534-P]: the pKi at angiogenin (ANG) (read-out: KI) is 5.30.

For the molecule `Nc1ccc(/N=N/c2ccc(-c3ccc(S(=O)(=O)O)cc3)cc2)c2ccc(S(=O)(=O)O)cc12` [NCI-724225], the pKi at angiogenin (ANG) (read-out: KI) was 4.09.

With `O=S(=O)(O)c1cc(S(=O)(=O)O)c2c(/N=N/c3ccccc3)c(O)ccc2c1` [Orange G], the negative-log Ki (pKi) at angiogenin (ANG) (read-out: KI) was 4.08.

For the molecule `Nc1ccc2cc(S(=O)(=O)O)cc(O)c2c1N=Nc1ccccc1S(=O)(=O)c1ccccc1` [S321443], the negative logarithm of the Ki (pKi) on angiogenin (ANG) (read-out: KI) was under 3.30.

`Nc1ccc(/N=N/c2ccc(-c3ccc(O)cc3)cc2)c2ccc(S(=O)(=O)O)cc12` [Tyger-65828]: the “Ki for inhibition of the ribonucleolytic activity of angiogenin” value on angiogenin (ANG) (20 mM Hepes, 100 mM NaCl, pH 7.0, 37° C.) is listed as “indistinguishable from that of the NCI compound”. In experiment [2] (4 μg s.c. 6 times per week), the “Percentage of Tumor-Bearing Mice, day 14” value is 8%; the “Percentage of Tumor-Bearing Mice, day 17” value is given as 42%; the “Percentage of Tumor-Bearing Mice, day 21” value was found to be 67%; the “Percentage of Tumor-Bearing Mice, day 24” value is 100%. Further, in experiment [2] (4 μg s.c. 6 times per week), the “Percentage of Tumor-Bearing Mice, day 32” value stood at 100% and the “Percentage of Tumor-Bearing Mice, day 35” value was determined as 100%. In experiment [2] (8 μg s.c. 6 times per week), the “Percentage of Tumor-Bearing Mice, day 14” value was found to be 0%; the “Percentage of Tumor-Bearing Mice, day 17” value amounted to 45%; the “Percentage of Tumor-Bearing Mice, day 21” value came out at 55%; the “Percentage of Tumor-Bearing Mice, day 24” value amounted to 82%. Besides, in experiment [2] (8 μg s.c. 6 times per week), the “Percentage of Tumor-Bearing Mice, day 32” value stood at 91% and the “Percentage of Tumor-Bearing Mice, day 35” value worked out at 100%. Moreover, in experiment [2] (20 μg s.c. 6 times per week), the “Percentage of Tumor-Bearing Mice, day 14” value turned out to be 0%; the “Percentage of Tumor-Bearing Mice, day 17” value amounted to 25%; the “Percentage of Tumor-Bearing Mice, day 21” value is reported as 33%; the “Percentage of Tumor-Bearing Mice, day 24” value came out at 92%. In addition, in experiment [2] (20 μg s.c. 6 times per week), the “Percentage of Tumor-Bearing Mice, day 32” value turned out to be 100% and the “Percentage of Tumor-Bearing Mice, day 35” value was 100%. In experiment [2] (40 μg s.c. 6 times per week), the “Percentage of Tumor-Bearing Mice, day 14” value was found to be 8%; the “Percentage of Tumor-Bearing Mice, day 17” value was determined as 33%; the “Percentage of Tumor-Bearing Mice, day 21” value was 33%; the “Percentage of Tumor-Bearing Mice, day 24” value turned out to be 83%. In experiment [2] (40 μg s.c. 6 times per week), the “Percentage of Tumor-Bearing Mice, day 32” value is on record as 92% and the “Percentage of Tumor-Bearing Mice, day 35” value is reported as 100%. Further, the “Time of appearance of tumors (Example 3, Table 1)” value in experiment [2] (treatment s.c. 6 times per week) was “delayed considerably the time of appearance of tumors”.

As for `CC(=O)Nc1ccc(/N=N/c2c(N)ccc3cc(S(=O)(=O)O)cc(O)c23)c(S(=O)(=O)O)c1` [acid red 37], the pKi on angiogenin (ANG) (read-out: KI) is 4.15.

`CC(=O)Nc1ccc(N=Nc2c(S(=O)(=O)O)cc3cc(S(=O)(=O)O)cc(NC(C)=O)c3c2O)cc1` [acid violet 7]: the pKi at angiogenin (ANG) (setting [4]) is 4.15.

As for `Nc1ccc2cc(S(=O)(=O)O)cc(O)c2c1/N=N/c1ccc(-c2ccc(/N=N/c3ccc(O)c(C(=O)O)c3)cc2)cc1` [direct red 1], the pKi at angiogenin (ANG) (read-out: KI) is 4.85.

In the case of `Nc1ccc2cc(S(=O)(=O)O)cc(O)c2c1N=Nc1ccc(-c2ccc(N=Nc3cc(S(=O)(=O)O)c4ccccc4c3N)cc2)cc1` [direct red 13], the pKi at angiogenin (ANG) (read-out: KI) is 3.95.

Consider `O=S(=O)(O)c1cc(S(=O)(=O)O)c2c(/N=N/c3ccc(S(=O)(=O)O)c4ccccc34)c(O)ccc2c1` [new coccine], for which, at angiogenin (ANG) (read-out: KI), the pKi is 4.16.

As to `Cc1cc(-c2ccc(/N=N/c3c(N)ccc4cc(S(=O)(=O)O)ccc34)c(C)c2)ccc1N` [prBZBP], the negative logarithm of the Ki (pKi) at angiogenin (ANG) (read-out: KI) was 4.70.

Take `O=S(=O)(O)c1ccc(/N=N/c2c(O)ccc3cc(S(=O)(=O)O)ccc23)cc1` [sunset yellow]: at angiogenin (ANG) (read-out: KI), the negative-log Ki (pKi) was 4.07.

With `Cc1ccc(C(=O)Nc2ccc(S(=O)(=O)O)c3cc(S(=O)(=O)O)cc(S(=O)(=O)O)c23)cc1NC(=O)c1cccc(NC(=O)Nc2cccc(C(=O)Nc3cc(C(=O)Nc4ccc(S(=O)(=O)O)c5cc(S(=O)(=O)O)cc(S(=O)(=O)O)c45)ccc3C)c2)c1` [suramin, reference compound], the negative logarithm of the Ki (pKi) on angiogenin (ANG) (read-out: KI) is 5.00.

Consider `Cc1cc(S(=O)(=O)O)ccc1N=c1ccc2c(-c3ccccc3C(=O)O)c3ccc(Nc4ccccc4C)cc3oc-2c1` [violamine R], for which the pKi on angiogenin (ANG) (read-out: KI) is 3.97.

As for `Cc1ccc(/N=N/c2c(O)c(S(=O)(=O)O)cc3cc(S(=O)(=O)O)ccc23)c(C)c1` [xylidene ponceau 2R], the pKi at angiogenin (ANG) is 4.31.

As for cefsulodin [reference compound], the negative logarithm of the Ki (pKi) on angiogenin (ANG) (setting [4]) is 3.70.

As for eriochrome black T, on angiogenin (ANG) (setting [4]), the pKi was 4.30.
